For 61 molecules, IC50 results are on record in US12398111B2, “Triazine compounds and pharmaceutical use thereof” (Japan Tobacco Inc., priority 2014, dated 2025).

This assay deals with T1, human mPGES-1 (Homo sapiens, UniProt O14684).
T1 construct: made in house; host or cells: FreeStyle CHO-S cells (Chinese hamster ovary), transient transfection with pcDNA3.1(+)/human mPGES-1; microsome fraction used
T1 sequence (O14684 1-152): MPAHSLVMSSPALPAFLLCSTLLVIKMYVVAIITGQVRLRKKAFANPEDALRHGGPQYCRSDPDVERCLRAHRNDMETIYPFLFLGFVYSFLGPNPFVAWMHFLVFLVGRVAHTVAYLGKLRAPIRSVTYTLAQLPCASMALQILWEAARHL
Put plainly: Evaluation of human mPGES-1 enzyme inhibitory activity (PGE2 measured by HTRF, microsome fraction of CHO-S cells expressing human mPGES-1). It counts as biochemical. As to conditions: IC50 value; microsome fraction of CHO-S cells expressing human mPGES-1, PGE2 by HTRF. The method, boiled down: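 Enzyme source: microsomes from CHO-S cells transfected with human mPGES-1 and cultured 48 hr, diluted to 5 μg/mL protein in reduced GSH (12.5 mmol/L KPB solution). Test articles were in 0.1 mol/L potassium phosphate pH 7.4, final DMSO 2% (v/v). PGE2 formed was quantified by HTRF.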
A general note: Time-resolved FRET reads energy transfer from a long-lived donor to a nearby acceptor.
Broadly, the IC50 is the concentration needed to halve the response being measured. A higher IC50 goes with a need for much substance. `Oc1nc(-c2ccc(C#CC3CCCCC3)cc2)nc(-c2c(Cl)cccc2OCc2ccc(C(F)(F)F)cn2)n1` [Example 2-83] showed an IC50 of 51 nM.

On to `CC1(C)CCC(Oc2ccc(-c3nc(O)nc(-c4c(Cl)cccc4OCc4ccccn4)n3)cc2)CC1` [Example 2-84], for which inhibition was half-maximal at 17 nM (IC50).

In the case of `C[C@H](Oc1cccc(Cl)c1-c1nc(O)nc(-c2ccc(C#Cc3ccccc3)cc2)n1)c1ccccn1` [Example 2-86], the midpoint of inhibition, the IC50, lay at 2.2 nM.

Take `Cc1cccc(COc2cccc(Cl)c2-c2nc(O)nc(-c3ccc(C#Cc4ccccc4)cc3)n2)n1` [Example 2-87]: the IC50 stood at 1.8 nM.

Regarding `N#Cc1cccc(OCc2ccccn2)c1-c1nc(O)nc(-c2ccc(C#Cc3ccccc3)cc2)n1` [Example 2-88], the IC50 was 2 nM.

Regarding `Oc1nc(-c2ccc(OCC3CC3)cc2)nc(-c2c(Cl)cccc2OCc2ccccn2)n1` [Example 2-89], half-maximal inhibition (IC50) was put at 18 nM.

In turn, `CN(C)C(=O)COc1cccc(Cl)c1-c1nc(O)nc(-c2ccc(OCC3CC3)cc2)n1` [Example 2-90] displayed an IC50 of 2100 nM.

For the molecule `Oc1nc(-c2ccc(C#CC3CCCC3)cc2)nc(-c2c(Cl)cccc2OCc2ccccn2)n1` [Example 2-91], the midpoint of inhibition, the IC50, lay at 1.6 nM. Compared with the last molecule, the IC50 is about 1300-fold lower.

Take `Oc1nc(-c2ccc(C#CC3CCCCC3)cc2)nc(-c2c(Cl)cccc2OCc2ccccn2)n1` [Example 2-92]: the IC50 is 4.4 nM.

Consider `Oc1nc(-c2ccc(OCC3CC3)nc2)nc(-c2c(Cl)cccc2OCc2ccccc2)n1` [Example 2-93], for which the IC50 was determined as 38 nM. This IC50 lies about 8.6-fold higher than the previous one.

`CC(C)(C)C#Cc1ccc(-c2nc(O)nc(-c3c(Cl)cccc3OCc3ccccn3)n2)cc1` [Example 2-94] showed an IC50 of 4.1 nM.

`Oc1nc(-c2ccc(C#Cc3ccccc3)cc2)nc(-c2c(OCc3ccccn3)cccc2C(F)(F)F)n1` [Example 2-95] returned an IC50 of 5 nM. The IC50 values of the last two molecules are within 1.5-fold of each other.

`Oc1nc(-c2ccc(C#Cc3ccccn3)cc2)nc(-c2c(Cl)cccc2OCc2ccccc2)n1` [Example 2-96] registered an IC50 of 21 nM.

As for `Oc1nc(-c2ccc(C#Cc3ccccn3)cc2)nc(-c2c(Cl)cccc2OCc2ccccn2)n1` [Example 2-97], 8.9 nM corresponded to half-maximal inhibition (IC50).

In the case of `Cc1cccc(COc2cccc(C(F)(F)F)c2-c2nc(O)nc(-c3ccc(C#Cc4ccccc4)nc3)n2)n1` [Example 2-99], the IC50 is 1.7 nM. Against the preceding molecule, the IC50 is about 5.2-fold lower.

For `Cc1ccccc1C#Cc1ccc(-c2nc(O)nc(-c3c(OCc4ccccn4)cccc3C(F)(F)F)n2)cc1` [Example 2-100], half-maximal inhibition (IC50) was put at 5.6 nM.

Molecule `Cc1cccc(C#Cc2ccc(-c3nc(O)nc(-c4c(OCc5ccccn5)cccc4C(F)(F)F)n3)cc2)c1` [Example 2-101] displayed an IC50 of 6.5 nM. The IC50 values of the last two molecules are within 1.5-fold of each other.

`Cc1ccc(C#Cc2ccc(-c3nc(O)nc(-c4c(OCc5ccccn5)cccc4C(F)(F)F)n3)cc2)cc1` [Example 2-102] displayed an IC50 of 5.9 nM.

On to `Oc1nc(-c2ccc(C#Cc3ccccc3C(F)(F)F)cc2)nc(-c2c(OCc3ccccn3)cccc2C(F)(F)F)n1` [Example 2-103], for which the IC50 came out at 10 nM.

The molecule `Oc1nc(-c2ccc(C#Cc3cccc(C(F)(F)F)c3)cc2)nc(-c2c(OCc3ccccn3)cccc2C(F)(F)F)n1` [Example 2-104] registered an IC50 of 18 nM.

`Oc1nc(-c2ccc(C#Cc3ccc(C(F)(F)F)cc3)cc2)nc(-c2c(OCc3ccccn3)cccc2C(F)(F)F)n1` [Example 2-105] registered an IC50 of 18 nM.

Molecule `Oc1nc(-c2ccc(C#Cc3ccccc3)c(F)c2)nc(-c2c(OCc3ccccn3)cccc2C(F)(F)F)n1` [Example 2-106] displayed an IC50 of 5 nM.

For `Cc1cccc(COc2cccc(C(F)(F)F)c2-c2nc(O)nc(-c3ccc(C#Cc4ccccc4F)cc3)n2)n1` [Example 2-107], the 50% inhibitory concentration (IC50) was found to be 3.8 nM. The IC50 values of the last two molecules are within 1.5-fold of each other.

Take `Cc1cccc(COc2cccc(C(F)(F)F)c2-c2nc(O)nc(-c3ccc(C#Cc4ccccc4Cl)cc3)n2)n1` [Example 2-108]: it took 6.4 nM to reach half-maximal inhibition (IC50). Against the preceding molecule, the IC50 is about 1.7-fold higher.

`COc1ccccc1C#Cc1ccc(-c2nc(O)nc(-c3c(OCc4cccc(C)n4)cccc3C(F)(F)F)n2)cc1` [Example 2-109] showed an IC50 of 2.8 nM.

`Cc1cc(C)nc(COc2cccc(C(F)(F)F)c2-c2nc(O)nc(-c3ccc(C#Cc4ccccc4)cc3)n2)c1` [Example 2-110] came in with an IC50 of 7.4 nM.

In the case of `Oc1nc(-c2ccc(C#Cc3ccccc3)cc2)nc(-c2c(OCc3ncccc3F)cccc2C(F)(F)F)n1` [Example 2-111], the IC50 came out at 4.4 nM.

`Oc1nc(-c2ccc(C#Cc3ccccc3)cc2)nc(-c2c(OCc3ccc(Cl)cn3)cccc2C(F)(F)F)n1` [Example 2-112] yielded an IC50 of 5.9 nM.

Molecule `Cc1ccnc(COc2cccc(C(F)(F)F)c2-c2nc(O)nc(-c3ccc(C#Cc4ccccc4)cc3)n2)c1` [Example 2-113] yielded an IC50 of 5.1 nM.

`Cc1ccc(COc2cccc(C(F)(F)F)c2-c2nc(O)nc(-c3ccc(C#Cc4ccccc4)cc3)n2)nc1` [Example 2-114]: the midpoint of inhibition, the IC50, lay at 4.9 nM.

`Oc1nc(-c2ccc(C#Cc3ccccc3)cc2)nc(-c2c(OCc3ccc(F)cn3)cccc2C(F)(F)F)n1` [Example 2-115] registered an IC50 of 3 nM. This IC50 is about 1.6-fold lower than that of the molecule before.

Molecule `Cc1cccc(COc2cccc(C(F)(F)F)c2-c2nc(O)nc(-c3ccc(C#Cc4cccc(F)c4)cc3)n2)n1` [Example 2-116] yielded an IC50 of 5.5 nM.

Turning to `Cc1cccc(COc2cccc(C(F)(F)F)c2-c2nc(O)nc(-c3ccc(C#Cc4ccc(F)cc4)cc3)n2)n1` [Example 2-117], the IC50 worked out at 4.7 nM.

On to `COc1cccc(COc2cccc(C(F)(F)F)c2-c2nc(O)nc(-c3ccc(C#Cc4ccccc4)cc3)n2)n1` [Example 2-118], for which the IC50 was 7.1 nM.

For the molecule `Oc1cccc(COc2cccc(C(F)(F)F)c2-c2nc(O)nc(-c3ccc(C#Cc4ccccc4)cc3)n2)n1` [Example 2-119], the IC50 came to 1.8 nM.

`COc1ccnc(COc2cccc(C(F)(F)F)c2-c2nc(O)nc(-c3ccc(C#Cc4ccccc4)cc3)n2)c1` [Example 2-120] showed an IC50 of 4.1 nM. This IC50 is about 2.3-fold higher than that of the molecule before.

`Oc1nc(-c2ccc(C#Cc3ccccc3)cc2)nc(-c2c(OCc3cccc(C(F)(F)F)n3)cccc2C(F)(F)F)n1` [Example 2-121] registered an IC50 of 14 nM.

`Oc1nc(-c2ccc(C#Cc3ccccc3)cc2)nc(-c2c(OCc3cc(C(F)(F)F)ccn3)cccc2C(F)(F)F)n1` [Example 2-122] came in with an IC50 of 15 nM. This IC50 and that of the molecule before are within 1.5-fold of each other.

As to `Cc1cccc(COc2cccc(C(F)(F)F)c2-c2nc(O)nc(-c3ccc(C#Cc4cccc(Cl)c4)cc3)n2)n1` [Example 2-123], the IC50 is 12 nM.

In turn, `Cc1cccc(COc2cccc(C(F)(F)F)c2-c2nc(O)nc(-c3ccc(C#Cc4ccc(Cl)cc4)cc3)n2)n1` [Example 2-124] displayed an IC50 of 12 nM. In other words, the double-digit nanomolar range.

The molecule `COc1cccc(C#Cc2ccc(-c3nc(O)nc(-c4c(OCc5cccc(C)n5)cccc4C(F)(F)F)n3)cc2)c1` [Example 2-125] displayed an IC50 of 4.3 nM.

With `COc1ccc(C#Cc2ccc(-c3nc(O)nc(-c4c(OCc5cccc(C)n5)cccc4C(F)(F)F)n3)cc2)cc1` [Example 2-126], half-maximal inhibition (IC50) required 4.6 nM.

For `Cc1ccc(C#Cc2ccc(-c3nc(O)nc(-c4c(OCc5cccc(C)n5)cccc4C(F)(F)F)n3)cc2)cc1` [Example 2-127], 6.2 nM corresponded to half-maximal inhibition (IC50). The IC50 values of the last two molecules are within 1.5-fold of each other.

Molecule `CCc1ccc(C#Cc2ccc(-c3nc(O)nc(-c4c(OCc5cccc(C)n5)cccc4C(F)(F)F)n3)cc2)cc1` [Example 2-128] returned an IC50 of 13 nM. Compared with the last molecule, the IC50 is about 2.1-fold higher.

As for `Cc1cccc(COc2cccc(C(F)(F)F)c2-c2nc(O)nc(-c3ccc(C#Cc4ccccc4OC(F)(F)F)cc3)n2)n1` [Example 2-129], the IC50 is 32 nM. This IC50 lies about 2.5-fold higher than the previous one.

Regarding `Cc1cccc(COc2cccc(C(F)(F)F)c2-c2nc(O)nc(-c3ccc(C#Cc4ccc(OC(F)(F)F)cc4)cc3)n2)n1` [Example 2-130], the IC50 came out at 35 nM.

Consider `Cc1cc(C)c(-c2nc(O)nc(-c3ccc(C(F)(F)F)cc3)n2)c(C)c1` [Example 3-1], for which the IC50 was 484 nM. This IC50 is about 14-fold higher than that of the molecule before.

Take `COc1c(CO)ccc(Cl)c1-c1nc(O)nc(-c2ccc(C(F)(F)F)cc2)n1` [Example 3-2]: the midpoint of inhibition, the IC50, lay at 148 nM.

Molecule `COc1c(C)ccc(Cl)c1-c1nc(O)nc(-c2ccc(C(F)(F)F)cc2)n1` [Example 3-3] gave an IC50 of 141 nM. The IC50 values of the last two molecules are within 1.5-fold of each other.

On to `CCOc1c(C)ccc(Cl)c1-c1nc(O)nc(-c2ccc(C(F)(F)F)cc2)n1` [Example 3-4], for which it took 202 nM to reach half-maximal inhibition (IC50).

`COc1c(CNC(C)=O)ccc(Cl)c1-c1nc(O)nc(-c2ccc(C(F)(F)F)cc2)n1` [Example 3-5] displayed an IC50 of 341 nM. Against the preceding molecule, the IC50 is about 1.7-fold higher.

Molecule `Cc1c(CO)ccc(Cl)c1-c1nc(O)nc(-c2ccc(C(F)(F)F)cc2)n1` [Example 3-6] displayed an IC50 of 56 nM.

Regarding `CC(=O)NCc1ccc(Cl)c(-c2nc(O)nc(-c3ccc(C(F)(F)F)cc3)n2)c1C` [Example 3-7], the IC50 came to 19 nM.

In the case of `Cc1c(CNC(=O)C(C)(C)C)ccc(Cl)c1-c1nc(O)nc(-c2ccc(C(F)(F)F)cc2)n1` [Example 3-8], the midpoint of inhibition, the IC50, lay at 1 nM.

In turn, `Cc1ccc(Cl)c(-c2nc(O)nc(-c3ccc(C(F)(F)F)cc3)n2)c1OCCO` [Example 3-9] had an IC50 of 776 nM. This IC50 lies about 780-fold higher than the previous one.

`Cc1c(CNS(=O)(=O)C(C)(C)C)ccc(Cl)c1-c1nc(O)nc(-c2ccc(C(F)(F)F)cc2)n1` [Example 3-10] returned an IC50 of 16 nM.

In turn, `COc1ccc(F)c(Cl)c1-c1nc(O)nc(-c2ccc(C(F)(F)F)cc2)n1` [Example 3-11] showed an IC50 of 93 nM.

`COc1ccc(F)c(Cl)c1-c1nc(O)nc(-c2ccc(OCc3ccccc3)cc2)n1` [Example 3-12]: the IC50 worked out at 28 nM.

`Cc1ccc(Cl)c(-c2nc(O)nc(-c3ccc(C(F)(F)F)cc3)n2)c1OCc1ccccn1` [Example 3-13]: the IC50 turned out to be 34 nM.

`Cc1c(CNC(=O)C(C)(C)C(F)(F)F)ccc(Cl)c1-c1nc(O)nc(-c2ccc(CC(C)C)cc2)n1` [Example 3-14]: the IC50 was 2 nM.

Molecule `CCOC(=O)NCc1ccc(Cl)c(-c2nc(O)nc(-c3ccc(CC(C)C)cc3)n2)c1C` [Example 3-15] came in with an IC50 of 5.1 nM.
